Experiments:
WT Abl = WT Abl (Homo sapiens, UniProt P00519); experiment: Abl kinase cross-reactivity assay; type: biochemical
Method: (§1) Assays for cross-reactivity with Src and Abl were also conducted. Purified c-Src or Abl were diluted in kinase reaction buffer (10 mM HEPES (pH 7.2), 10 mM MgCl2, 0.2 mM DTT) to a concentration of approximately 10 nM and pre-incubated with 1 mg/mL BSA, 2.5% (v/v) DMSO, 133 μM peptide (sequence EAIYAAPFKKK for Abl and EIYGEFKKK for c-Src), and varying concentrations of inhibitor. Kinase reactions were initiated by the addition of […] cold ATP supplemented with 5 mCi γ^32P ATP and allowed to proceed at room temperature (RT). At 10 minutes […] of the reactions were spotted onto phosphocellulose sheets (P81, Whatman) and subsequently soaked in was buffer (1.0% (v/v) phosphoric acid). The sheets were washed five times in buffer, dried, and transferred radioactivity was measured by phosphorimaging using a Typhoon™ scanner (Molecular Dynamics). Radioactive counts were quantified using ImageQuant software, and titration data were fit to a sigmoidal dose response to derive IC50 values using the Prism® software package. Dose responses were based on a 12 point inhibitor titration, using ⅓ dilutions starting from […].

Ire1 = experiment: Summary statement of Ire1 activation or inhibition (assay not specified)
human Ire1 = human Ire1 (Homo sapiens, UniProt O75460); experiment: In vitro cleavage of 32P-stem-loop RNA by human Ire1; type: biochemical; details: AD series of Ire1 modulators
Method: (§2) RNA cleavage reactions were conducted at 30° C. in buffer containing 20 mM HEPES (pH 7.5), 70 mM NaCl, 2 mM ADP (pH 7.0), 2 mM Mg(OAc)2, 5 mM DTT, 5% glycerol, less than 1 nM ^32p-labeled RNA substrate, and 3 nM-20 μM Ire1. Reaction solutions and buffers were designed using Biochem Lab Solutions 3.5. Reactions were prepared such that 1 μl of RNA was added to 9 μl of pre-warmed reaction mixture containing all components except RNA. Typically, 3-10 minute time courses were collected starting from 5 seconds for the first time point. At time intervals, 1 μl of solution was withdrawn from each reaction and mixed wish 6 μl stop solution containing 10 M urea, 0.1% SDS, 0.1 mM EDTA, 0.05% xylene cyanol, and 0.05% bromophenol blue. The samples were separated by a denaturing 10% PAGE and exposed on a phosphor storage screen. The screens were scanned on a Storm or a Typhoon instrument and quantified using ImageQuant 5.0 or GelQuant.NET 1.4 programs. The data were plotted and fit in SigmaPlot 6.0.
In vitro cleavage of ^32P-stem-loop RNA by human Ire1, with AD series of Ire1 modulators gave the following results: […]

WT Src = WT Src (Homo sapiens, UniProt P12931); experiment: c-Src kinase cross-reactivity assay; type: biochemical
Method: as §1

[1] = system: Xbp-1 mRNA splicing (UPR activation through Ire1) in HEK293 cells; experiment: XBP-1 mRNA splicing by RT-PCR in HEK293 cells (UPR); type: cell-based, mammalian; details: for % splicing mRNA XBP-I Average: Hek293 cells treated for 4 hrs, RT-PCR
Method: The effect of tunicamycin, SU11248, DJM2005, APY24, and APY29 on Ire1 activity was tested in mammalian cells using HEK293 cells as a model system. Cells were treated according to the methods described in Lin J H et al., Science 318:944 (2007). After treatment with the corresponding agents for the indicated time, Xbp-1 mRNA splicing was determined by RT-PCR. Unspliced (u) and spliced (s) Xbp1-mRNA products are indicated and serve as a measure of UPR activation through Ire1.
Exemplary compounds were assayed for their effect on UPR. Results are set forth in FIGS. 18-19 and in the table below.

Ire1KR32 = target: T1, Ire1KR32 (Saccharomyces cerevisiae, UniProt P32361); experiment: RNase cleavage assay with Ire1 cytosolic constructs (Ire1KR32), co-factors and kinase inhibitors; type: biochemical; details: for activation of the RNase of Ire1KR32: FIG. 3A
T1 construct: Overview of the Ire1 constructs; GST (N); made in house; host or cells: E. coli BL21 CodonPlus (RIPL)
T1 sequence (P32361 with tags, fused parts or gaps): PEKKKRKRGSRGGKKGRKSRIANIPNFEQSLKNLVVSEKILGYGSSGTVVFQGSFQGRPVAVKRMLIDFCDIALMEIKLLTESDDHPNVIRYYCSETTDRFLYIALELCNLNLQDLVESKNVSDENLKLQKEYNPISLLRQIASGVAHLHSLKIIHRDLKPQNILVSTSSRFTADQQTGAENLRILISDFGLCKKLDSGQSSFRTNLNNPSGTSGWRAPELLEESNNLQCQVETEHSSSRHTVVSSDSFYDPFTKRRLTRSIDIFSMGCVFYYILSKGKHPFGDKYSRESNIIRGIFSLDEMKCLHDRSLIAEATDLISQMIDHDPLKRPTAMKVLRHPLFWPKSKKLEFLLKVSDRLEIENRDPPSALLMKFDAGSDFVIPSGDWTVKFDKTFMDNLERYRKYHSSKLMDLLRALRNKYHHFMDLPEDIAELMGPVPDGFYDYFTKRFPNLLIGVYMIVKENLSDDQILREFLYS
Method: as §2
Variants of the cytosolic portion of Ire1 that contain the kinase and the RNase domains (Ire1KR) and Ire1KR extended by 24 (Ire1KR24) or 32 (Ire1KR32) amino acids towards the N-terminus (FIG. 1A, FIG. 1C, FIG. 7) were prepared. These additional amino acid extensions are part of a ˜100 amino acid-long linker domain that tethers the kinase/RNase domains to the transmembrane domain. All three constructs cleaved site-specifically 5′-32p-labeled stem-loop oligoribonucleotides 14 derived from the XBP1 mRNA (FIG. 1B, FIG. 8). […] No ADP.Mg co-factor was required for the cooperative activation of the RNase.
Ire1KR32 was co-crystallized with inhibitors that were designed to target CDK2 and EGFR kinases. Certain kinase inhibitors fully activated the RNase function of Ire1 (FIG. 3A). This is the first example of wild-type Ire1 activation by synthetic compounds.
Crystals obtained with the inhibitor APY29 allowed the structure determination of the Ire1KR32-APY29 complex at 3.9 Å resolution. A well-resolved density for the inhibitor molecule was found in the ATP binding pocket of the Ire1 kinase domain (FIG. 3B). APY29 forms an extensive hydrogen-bonding network with the protein backbone formed by E746, L747, and C748 (FIG. 3C). Hydrogen bonds are likely to also form with two side chains at the active site, N751, and D828. […] Manual fitting of sunitinib guided by know structures of kinase.inhibitor complexes (e.g., PDB IDs 2G9X and 2F4J) predicts that the compound fills the nucleobase site, but not the sugar and the phosphate sub-sites. […] AIN54 could not be readily fit to the ATP pocket due to steric clashes arising partly because of the unusual position of beta strand β1 that covers the nucleotide-binding pocket of the Ire1 kinase.
This structural difference provides an excellent tool to test the role of magnesium in the RNase activity of Ire1. Accordingly, the effect of EDTA on the RNase activity of Ire1KR32 was examined.

yIre1 [2] = target: T2, yIre1 (Saccharomyces cerevisiae, UniProt P32361); experiment: RNA cleavage-based yIre1 activation assay; type: biochemical, yeast; parameters: unit not given here; details: 3 μM yIre1, stem loop RNA, 15 μM effector
T2 construct: GST (N); made in house; host or cells: E. coli BL21 CodonPlus (RIPL)
T2 sequence (P32361 with tags, fused parts or gaps limits assumed): T1 sequence (P32361 with tags, fused parts or gaps)
Method: The RNase Cleavage Assay.
as §2
RNA cleavage can be used to assess yIre1 activation as shown by FIG. 20 and the table below (3 μM yIre1, stem loop RNA, 15 μM effector): […]

[3] = system: XBP1-GFP reporter in Hek293-FT cells; experiment: FACS on Hek293-FT cells transfected with XBP1-GFP reporter; type: cell-based; details: treated for 24 hrs
Method: Exemplary compounds were assayed and the results are set froth in the table below.

yIre1 [4] = target: T2, yIre1; experiment: RNA cleavage-based yIre1 inhibition assay with pre-activated purified Ire1; type: biochemical, yeast; details: 1.5 μM yIre1, 100 μM ADP-2 mM Mg, 30 μM effector (FIG. 21A)
Method: FIGS. 21A and B. A. RNA cleavage-based yIre1 inhibition assay with purified Ire1 under conditions that have pre-activated Ire1. […] Thus, some APY compounds could serve as both Ire1 RNase inhibitors or Ire1 RNase activators, depending on the experimental setting.
as §2, with “RNA cleavage reactions were conducted at 30° C. in buffer containing 20 mM HEPES (pH 7.5), 70 mM NaCl, 2 mM ADP (pH 7.0), 2 mM Mg(OAc)2, 5 mM DTT, 5% glycerol, less than 1 nM ^32p-labeled RNA substrate, and 3 nM-20 μM Ire1.” left out
An RNA cleavage inhibition assay was also performed with exemplary compounds as shown by FIG. 21A (1.5 μM yIre1 mm loop RNA, 100 μM ADP-2 mM Mg, 30 μM effector).

Chain of human Ire1 (O75460 19-977): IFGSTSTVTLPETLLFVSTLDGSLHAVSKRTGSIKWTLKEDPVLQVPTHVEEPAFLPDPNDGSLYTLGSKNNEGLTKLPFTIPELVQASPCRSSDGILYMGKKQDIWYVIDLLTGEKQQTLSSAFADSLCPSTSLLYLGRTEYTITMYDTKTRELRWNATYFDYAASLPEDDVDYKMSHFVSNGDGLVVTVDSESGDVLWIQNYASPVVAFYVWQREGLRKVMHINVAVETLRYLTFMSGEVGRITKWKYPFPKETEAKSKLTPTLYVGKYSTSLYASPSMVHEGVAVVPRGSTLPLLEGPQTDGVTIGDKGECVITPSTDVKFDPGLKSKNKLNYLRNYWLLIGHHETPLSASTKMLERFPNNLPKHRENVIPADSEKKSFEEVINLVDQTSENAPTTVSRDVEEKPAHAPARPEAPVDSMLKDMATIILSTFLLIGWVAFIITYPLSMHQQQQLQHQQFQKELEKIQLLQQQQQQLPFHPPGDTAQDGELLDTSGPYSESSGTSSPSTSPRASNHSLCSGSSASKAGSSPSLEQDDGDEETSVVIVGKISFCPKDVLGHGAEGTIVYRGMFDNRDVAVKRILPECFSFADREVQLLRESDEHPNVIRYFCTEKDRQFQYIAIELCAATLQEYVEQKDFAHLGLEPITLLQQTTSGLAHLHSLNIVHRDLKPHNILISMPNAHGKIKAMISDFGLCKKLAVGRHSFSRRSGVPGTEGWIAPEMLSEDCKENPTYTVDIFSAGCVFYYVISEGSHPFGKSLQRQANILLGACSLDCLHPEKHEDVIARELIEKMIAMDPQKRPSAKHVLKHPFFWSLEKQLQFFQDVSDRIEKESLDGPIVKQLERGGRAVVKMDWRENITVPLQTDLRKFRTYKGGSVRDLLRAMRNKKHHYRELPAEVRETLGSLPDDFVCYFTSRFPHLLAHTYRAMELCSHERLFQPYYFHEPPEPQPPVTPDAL
Chain of WT Abl (P00519 whole entry): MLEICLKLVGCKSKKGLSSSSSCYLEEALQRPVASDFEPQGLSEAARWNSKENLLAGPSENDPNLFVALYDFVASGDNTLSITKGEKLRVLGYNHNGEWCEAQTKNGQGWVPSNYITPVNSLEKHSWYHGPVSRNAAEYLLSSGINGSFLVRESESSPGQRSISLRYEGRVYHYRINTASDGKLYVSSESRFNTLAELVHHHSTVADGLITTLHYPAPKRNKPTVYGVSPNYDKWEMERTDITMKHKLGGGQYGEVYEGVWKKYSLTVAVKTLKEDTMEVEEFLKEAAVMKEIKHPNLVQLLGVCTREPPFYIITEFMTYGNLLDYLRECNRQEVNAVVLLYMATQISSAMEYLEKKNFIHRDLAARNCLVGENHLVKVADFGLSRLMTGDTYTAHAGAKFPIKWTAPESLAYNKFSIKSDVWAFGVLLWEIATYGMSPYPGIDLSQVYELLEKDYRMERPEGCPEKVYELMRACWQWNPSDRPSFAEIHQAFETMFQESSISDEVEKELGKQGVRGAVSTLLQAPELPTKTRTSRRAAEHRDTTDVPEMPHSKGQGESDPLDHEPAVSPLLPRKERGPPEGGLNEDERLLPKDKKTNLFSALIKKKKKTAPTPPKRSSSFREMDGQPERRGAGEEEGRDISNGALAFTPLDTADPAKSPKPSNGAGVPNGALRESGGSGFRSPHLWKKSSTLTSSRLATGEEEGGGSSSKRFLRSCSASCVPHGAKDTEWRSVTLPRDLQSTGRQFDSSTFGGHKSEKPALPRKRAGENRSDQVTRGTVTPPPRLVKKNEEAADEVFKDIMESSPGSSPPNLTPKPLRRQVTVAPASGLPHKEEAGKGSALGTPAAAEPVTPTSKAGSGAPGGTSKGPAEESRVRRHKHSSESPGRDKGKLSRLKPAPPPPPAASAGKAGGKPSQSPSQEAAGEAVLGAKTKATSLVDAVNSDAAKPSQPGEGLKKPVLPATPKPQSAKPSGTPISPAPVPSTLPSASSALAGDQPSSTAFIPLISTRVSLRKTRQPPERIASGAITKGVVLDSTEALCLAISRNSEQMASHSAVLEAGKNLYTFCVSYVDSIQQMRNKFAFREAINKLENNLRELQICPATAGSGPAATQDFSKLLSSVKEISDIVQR
Chain of WT Src (P12931 whole entry): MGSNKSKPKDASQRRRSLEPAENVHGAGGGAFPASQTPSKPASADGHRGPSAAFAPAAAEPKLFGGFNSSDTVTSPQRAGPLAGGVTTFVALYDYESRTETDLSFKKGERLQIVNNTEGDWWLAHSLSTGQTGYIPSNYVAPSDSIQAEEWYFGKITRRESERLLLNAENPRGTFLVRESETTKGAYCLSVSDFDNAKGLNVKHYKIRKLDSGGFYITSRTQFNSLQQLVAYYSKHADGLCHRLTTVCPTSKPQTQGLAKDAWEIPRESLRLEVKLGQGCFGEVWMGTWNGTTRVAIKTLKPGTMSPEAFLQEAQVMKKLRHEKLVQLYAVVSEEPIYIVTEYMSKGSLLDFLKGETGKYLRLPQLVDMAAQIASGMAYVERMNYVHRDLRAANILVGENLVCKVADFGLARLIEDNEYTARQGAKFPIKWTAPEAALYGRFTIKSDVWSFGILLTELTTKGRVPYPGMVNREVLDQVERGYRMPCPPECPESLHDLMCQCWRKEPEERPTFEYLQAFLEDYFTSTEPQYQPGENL

Row | SMILES | IC50 (WT Abl) | In vitro cleavage of 32P-stem-loop RNA by human Ire1 (human Ire1) | IC50 (WT Src) | RNA cleavage (yIre1 activation) (yIre1 [2]) | effect of EDTA (chelation of magnesium) on RNase activity of Ire1KR32 stimulated by the substance (Ire1KR32; FIG. 3F) | inhibition of Ire1 RNase (yIre1 [4]) | activation of Ire1 (Ire1) | % splicing mRNA XBP-I Average ([1]; Tm 0.3 ug/ml + compound 2 μM) | % splicing mRNA XBP-I Average ([1]; compound 2 μM) | % splicing mRNA XBP-I Average ([1]; compound 10 μM) | in vivo activation of Ire1 ([1]; summary statement) | activation of the RNase of Ire1KR32 (Ire1KR32) | % fold induction to Control ([3]; Tm 0.3 ug/ml + compound 2 uM) | Mean fluorescence ([3]; Tm 0.3 ug/ml + compound 2 uM) | % fold induction to Control ([3]; compound 2 uM) | Mean fluorescence ([3]; compound 2 uM) | inhibition of Ire1 (Ire1)
1 | O=C(Nc1ccc(Nc2nccc(Nc3cc(C4CC4)n[nH]3)n2)cc1)c1cccc(C(F)(F)F)c1 [AD74, N-(4-(4-(3-cyclopropyl-1H-pyrazol-5-ylamino)pyrimidin-2-ylamino)phenyl)-3-(trifluoromethyl)benzamide] | 2.15 µM | 0.0877 | 357 nM |  |  |  | significant activation |  |  |  |  |  |  |  |  |  | 
2 | O=C(Nc1ccc(Nc2nccc(Nc3cc(C4CC4)n[nH]3)n2)cc1)Nc1cccc(C(F)(F)F)c1 [AD75, 1-(4-(4-(3-cyclopropyl-1H-pyrazol-5-ylamino)pyrimidin-2-ylamino)phenyl)-3-(3-(trifluoromethyl)phenyl)urea] | 2.43 µM | 0.2317 | 170 nM |  |  |  | significant activation |  |  |  |  |  |  |  |  |  | 
3 | O=C(Nc1cccc(Nc2nccc(Nc3cc(C4CC4)n[nH]3)n2)c1)c1cccc(C(F)(F)F)c1 [AD76, N-(3-(4-(3-cyclopropyl-1H-pyrazol-5-ylamino)pyrimidin-2-ylamino)phenyl)-3-(trifluoromethyl)benzamide] | 4.96 µM | 0.0139 | 138 nM |  |  |  | significant activation |  |  |  |  |  |  |  |  |  | 
4 | O=C(Nc1cccc(Nc2nccc(Nc3cc(C4CC4)n[nH]3)n2)c1)Nc1cccc(C(F)(F)F)c1 [AD77, 1-(3-(4-(3-cyclopropyl-1H-pyrazol-5-ylamino)pyrimidin-2-ylamino)phenyl)-3-(3-(trifluoromethyl)phenyl)urea] | 36.8 µM | 0.0239 | 442 nM |  |  |  | significant activation |  |  |  |  |  |  |  |  |  | 
5 | N#CCc1ccc(Nc2nccc(Nc3cc(C4CC4)[nH]n3)n2)cc1 [APY24] |  |  |  | 0.04667 |  |  | significant activation | 28% | 30% | 44% | significant in vivo activation | Potent activators | −2% | 2387 | 6% | 2569 | 

Further lines, with some results ahead:

Row | IC50 (WT Abl) | In vitro cleavage of 32P-stem-loop RNA by human Ire1 (human Ire1) | IC50 (WT Src) | RNA cleavage (yIre1 activation) (yIre1 [2]) | effect of EDTA (chelation of magnesium) on RNase activity of Ire1KR32 stimulated by the substance (Ire1KR32; FIG. 3F) | inhibition of Ire1 RNase (yIre1 [4]) | SMILES | activation of Ire1 (Ire1) | % splicing mRNA XBP-I Average ([1]; Tm 0.3 ug/ml + compound 2 μM) | % splicing mRNA XBP-I Average ([1]; compound 2 μM) | % splicing mRNA XBP-I Average ([1]; compound 10 μM) | in vivo activation of Ire1 ([1]; summary statement) | activation of the RNase of Ire1KR32 (Ire1KR32) | % fold induction to Control ([3]; Tm 0.3 ug/ml + compound 2 uM) | Mean fluorescence ([3]; Tm 0.3 ug/ml + compound 2 uM) | % fold induction to Control ([3]; compound 2 uM) | Mean fluorescence ([3]; compound 2 uM) | inhibition of Ire1 (Ire1)
6 |  |  |  | 0.07509 | remained unchanged |  | c1cc(Nc2cc(C3CC3)[nH]n2)nc(Nc2ccc3[nH]cnc3c2)n1 [APY29] | significant activation | 40% | 10% | 14% |  | Potent activators | 65% | 4016 | 11% | 2697 | 
7 |  |  |  | 0.001872 |  | inhibit Ire1 | Cc1cc(Nc2cc(C3CCCCC3)n[nH]2)nc(Nc2ccc(CC#N)cc2)n1 [APY81] |  | 7% | 11% | 16% |  |  |  |  |  |  | significant inhibition
